These are literature values, as cited in EP0211258A2, “Microemulsion compositions” (ABBOTT LABORATORIES, priority 1985, dated 1987).

For the data set the following is noted: commonly employed aqueous solutions, 2.5%, w/v.

With `CCCC(C)C1(CC)C(=O)NC(=S)NC1=O` (stereo not shown) [thiopental sodium], the pH is listed as 10.5.
